The test system of test [1] is RWPE-1 cells. Put plainly: MTT assay (cytotoxicity) in RWPE-1. The conditions noted are these: Homo sapiens, FIG. 4, read-out: GI50 against RWPE-1. It counts as cell-based. The source says: (§1) FIG. 4. Bioassay of compound I-1, compound I-2, and compound I-3. SPA14-3-2 is pure compound I-2. SPA14-3-3 is pure compound I-3. SPA14-3-4 is pure compound I-1. MTT assays using compound I-1, compound I-2, and compound I-3 against DU145 and RWPE-1 cells lines.
(§2) Isolation, NMR, and X-ray crystallographic analyses. Leaves, stems, and few fruits of Physalis angulate L (Solanaceae) were collected in Rio Domingusa. Kuith/Barranquita, Amazonas Department, Northeastern Peru, and identified by the team led by Walter Lewis (collection voucher 18597, Ext. 1159). Dried and grounded material (46 g) was extracted with ethanol (1 L, 95%) for 7 days. The evaporated crude extract (6.26 g) was denoted SPA. An aliquot (1.5 g) of SPA was partitioned between dichloromethane (40 mL) and water (40 mL), affording two fractions: organic (SPA1, 500 mg) and aqueous (SPA2, 600 mg). All MTT assays were performed as described in Bates et al. “G-Rich Oligonucleotides for Cancer Treatment” Chapter 21 of Methods in Molecular Biology, Gene Therapy of Cancer, Wolfgang Walther and Ulrike S. Stein (eds.), Vol. 542, 2009, Humana Press. […] SPA14-3 (30 mg) was treated on an HPLC using a reverse phase C18 column eluted in gradient mode of methanol and water (from 80% methanol to 100% methanol) and detected at 254 nm, yielding SPA14-3-1 (0 mg), SPA14-3-2 (1.2 mg of pure compound I-2), SPA14-3-3 (4.1 mg of pure compound I-3), and SPA14-3-4 (18 mg of pure compound I-1).
General Experimental Procedure. Compound I-1 was isolated as described in Example Set 1, above. For samples of compound I-1 used in Example Set 2, HPLC and NMR indicated a purity of at least 95%. All experiments described in Example Set 2 were repeated at least two or three times. All MTT assays were performed according to Bates et al. “G-Rich Oligonucleotides for Cancer Treatment” Chapter 21 of Methods in Molecular Biology, Gene Therapy of Cancer, Wolfgang Walther and Ulrike S. Stein (eds.), Vol. 542, 2009, Humana Press.
(Formazan colour is commonly taken as a measure of viable cells.)

In test [2] the test system is DU145 cells. Description: MTT assay (cytotoxicity / cell proliferation) in DU145. It counts as cell-based, human. The settings on record: Homo sapiens, DU-145; MTT assay, FIG. 4; read-out: GI50 against DU145. The procedure:
as §1
FIG. 8. Cell proliferation assay. (A) DU145 or PC3 prostate cancer were plated at a density of 1,500 cells per well in 96-well plates and incubated 18 hours at 37° C. to allow adherence. They were untreated or treated by addition of different concentrations of compound I-1 (which were added directly to the medium) or vehicle (DMSO), and proliferation was measured using a 3-(4,5-dimethylthiazol-2-yl)-2,5-diphenyltetrazolium bromide MTT assay after 3 days of treatment. Points, mean of triplicate normalized samples to vehicle sample; bars, SE. (B) GI50 after 3 days of treatment. (C) Prostate cancer cells (DU145 or PC3) or a non-malignant epithelial cells (RWPE-1) were plated at a density of 1,000 cells per well in 96-well plates and incubated 18 hours at 37° C. to allow adherence. They were untreated or treated by addition of different concentrations of compound I-1 (added directly to the medium) or vehicle (DMSO), and proliferation was by MTT assay after 5 days of treatment. Points, mean of triplicate normalized samples to vehicle sample; bars, SE.
as §2
General Experimental Procedure. Compound I-1 was isolated as described in Example Set 1, above. For samples of compound I-1 used in Example Set 2, HPLC and NMR indicated a purity of at least 95%. All experiments described in Example Set 2 were repeated at least two or three times. […]

Molecules are shown by their SMILES. Values after ≈ are worked out from the molar mass of the structure shown.

By GI50 is commonly meant the concentration at which growth is held to half of that of the control. Take `CC12C[C@@H]([C@@]34CC[C@@]5(O3)C3C(O4)[C@H]4O[C@]46CC=CC(=O)[C@]6(C)[C@H]3CC[C@]5(C)O)C(C[C@@]1(C)O)OC2=O` (stereo partly shown) [I-3]: the figures for the concentration for 50% growth inhibition (GI50) in test [1] and in test [2] were 3.3 µg/mL (≈ 6.59 µM) and 3 µg/mL (≈ 5.99 µM), respectively.

Take `CC12C[C@@H]([C@@]34CC[C@@]5(O3)C3C(O4)[C@H]4O[C@]46CC=CC(=O)[C@]6(C)[C@H]3CC[C@@]5(C)O)C(C[C@@]1(C)O)OC2=O` (stereo partly shown) [I-2]: the values for the GI50 in test [1] and in test [2] were 3 µg/mL (≈ 5.99 µM) and 3.4 µg/mL (≈ 6.79 µM), respectively.

Source of the values: patent US9492428B2, “Compounds, compositions, pharmaceutical compositions, and methods of use” (University of Louisville Research Foundation, Inc., priority 2011, dated 2016).
